Experiment [1] concerns the target Human immunodeficiency virus type 1 integrase (Human immunodeficiency virus 1) (UniProt Q7ZJM1). As to the kind of experiment: Binding affinity to HIV-1 integrase measured after overnight incubation by chemiluminescence analysis relative to IN 174-188. Also noted: concentration or dose not given beside the values.
Experiment [2] has as its system Human immunodeficiency virus 1. As to the kind of experiment: Binding affinity to HLT-tagged HIV-1 Rev measured after overnight incubation by chemiluminescence analysis relative to IN 174-188. Also noted: concentration or dose not given beside the values.

Peptide text beside a SMILES is read from it.

Human immunodeficiency virus type 1 integrase (Human immunodeficiency virus 1), sequence (Q7ZJM1 as listed by the source): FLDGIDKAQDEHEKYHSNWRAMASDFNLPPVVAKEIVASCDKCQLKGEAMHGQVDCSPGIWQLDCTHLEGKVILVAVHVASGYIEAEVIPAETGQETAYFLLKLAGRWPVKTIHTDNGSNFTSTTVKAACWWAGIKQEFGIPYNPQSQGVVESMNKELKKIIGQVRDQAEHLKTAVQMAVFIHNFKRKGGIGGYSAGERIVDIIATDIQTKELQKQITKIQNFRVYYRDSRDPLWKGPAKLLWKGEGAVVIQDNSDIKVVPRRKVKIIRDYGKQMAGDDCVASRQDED

Take `CC[C@H](C)[C@@H](NC(=O)[C@H](Cc1ccccc1)NC(=O)[C@@H](NC(=O)[C@H](C)NC(=O)[C@H](CCSC)NC(=O)[C@H](CCC(N)=O)NC(=O)[C@@H](NC(=O)[C@H](C)NC(=O)[C@@H](N)[C@@H](C)O)C(C)C)C(C)C)C(=O)N[C@@H](Cc1cnc[nH]1)C(=O)N[C@@H](CC(N)=O)C(=O)N[C@@H](Cc1ccccc1)C(=O)N[C@@H](CCCCN)C(=O)N[C@@H](CCCNC(=N)N)C(=O)N[C@@H](CCCCN)C(=O)O`: the values for the Activity in experiment [1] and in experiment [2] were 99% and 108%, respectively.
Take `CC[C@H](C)[C@H](NC(=O)[C@@H](Cc1ccccc1)NC(=O)[C@@H](NC(=O)[C@H](C)NC(=O)[C@H](CCSC)NC(=O)[C@H](CCC(N)=O)NC(=O)[C@@H](NC(=O)[C@H](C)NC(=O)[C@@H](N)[C@@H](C)O)C(C)C)C(C)C)C(=O)N[C@@H](Cc1cnc[nH]1)C(=O)N[C@@H](CC(N)=O)C(=O)N[C@@H](Cc1ccccc1)C(=O)N[C@@H](CCCCN)C(=O)N[C@@H](CCCNC(=N)N)C(=O)N[C@@H](CCCCN)C(=O)O`: the Activity was determined as 120% in experiment [1] and 231% in experiment [2].
For the compound `CC[C@H](C)[C@H](NC(=O)[C@H](Cc1ccccc1)NC(=O)[C@@H](NC(=O)[C@@H](C)NC(=O)[C@H](CCSC)NC(=O)[C@H](CCC(N)=O)NC(=O)[C@@H](NC(=O)[C@H](C)NC(=O)[C@@H](N)[C@@H](C)O)C(C)C)C(C)C)C(=O)N[C@@H](Cc1cnc[nH]1)C(=O)N[C@@H](CC(N)=O)C(=O)N[C@@H](Cc1ccccc1)C(=O)N[C@@H](CCCCN)C(=O)N[C@@H](CCCNC(=N)N)C(=O)N[C@@H](CCCCN)C(=O)O`, the results for the Activity in experiment [1] and in experiment [2] were 142% and 194%, respectively.
Turning to `CC[C@H](C)[C@H](NC(=O)[C@H](Cc1ccccc1)NC(=O)[C@@H](NC(=O)[C@H](C)NC(=O)[C@@H](CCSC)NC(=O)[C@H](CCC(N)=O)NC(=O)[C@@H](NC(=O)[C@H](C)NC(=O)[C@@H](N)[C@@H](C)O)C(C)C)C(C)C)C(=O)N[C@@H](Cc1cnc[nH]1)C(=O)N[C@@H](CC(N)=O)C(=O)N[C@@H](Cc1ccccc1)C(=O)N[C@@H](CCCCN)C(=O)N[C@@H](CCCNC(=N)N)C(=O)N[C@@H](CCCCN)C(=O)O`, the Activity turned out to be 127% in experiment [1] and 196% in experiment [2].
Take `CC[C@H](C)[C@H](NC(=O)[C@H](Cc1ccccc1)NC(=O)[C@@H](NC(=O)[C@H](C)NC(=O)[C@H](CCSC)NC(=O)[C@@H](CCC(N)=O)NC(=O)[C@@H](NC(=O)[C@H](C)NC(=O)[C@@H](N)[C@@H](C)O)C(C)C)C(C)C)C(=O)N[C@@H](Cc1cnc[nH]1)C(=O)N[C@@H](CC(N)=O)C(=O)N[C@@H](Cc1ccccc1)C(=O)N[C@@H](CCCCN)C(=O)N[C@@H](CCCNC(=N)N)C(=O)N[C@@H](CCCCN)C(=O)O`: the values for the Activity in experiment [1] and in experiment [2] were 154% and 173%, respectively.
`CC[C@H](C)[C@H](NC(=O)[C@H](Cc1ccccc1)NC(=O)[C@@H](NC(=O)[C@H](C)NC(=O)[C@H](CCSC)NC(=O)[C@H](CCC(N)=O)NC(=O)[C@@H](NC(=O)[C@@H](C)NC(=O)[C@@H](N)[C@@H](C)O)C(C)C)C(C)C)C(=O)N[C@@H](Cc1cnc[nH]1)C(=O)N[C@@H](CC(N)=O)C(=O)N[C@@H](Cc1ccccc1)C(=O)N[C@@H](CCCCN)C(=O)N[C@@H](CCCNC(=N)N)C(=O)N[C@@H](CCCCN)C(=O)O`: the Activity in experiment [1] is 105%; in experiment [2], 209%.
Regarding `CC[C@H](C)[C@H](NC(=O)[C@H](Cc1ccccc1)NC(=O)[C@@H](NC(=O)[C@H](C)NC(=O)[C@H](CCSC)NC(=O)[C@H](CCC(N)=O)NC(=O)[C@@H](NC(=O)[C@H](C)NC(=O)[C@@H](N)[C@@H](C)O)C(C)C)C(C)C)C(=O)N[C@@H](Cc1cnc[nH]1)C(=O)N[C@@H](CC(N)=O)C(=O)N[C@@H](Cc1ccccc1)C(=O)N[C@@H](CCCCN)C(=O)N[C@@H](CCCNC(=N)N)C(=O)N[C@H](CCCCN)C(=O)O`, the figures for the Activity in experiment [1] and in experiment [2] were 86% and 110%, respectively.
For `CC[C@H](C)[C@H](NC(=O)[C@H](Cc1ccccc1)NC(=O)[C@@H](NC(=O)[C@H](C)NC(=O)[C@H](CCSC)NC(=O)[C@H](CCC(N)=O)NC(=O)[C@@H](NC(=O)[C@H](C)NC(=O)[C@@H](N)[C@@H](C)O)C(C)C)C(C)C)C(=O)N[C@@H](Cc1cnc[nH]1)C(=O)N[C@@H](CC(N)=O)C(=O)N[C@@H](Cc1ccccc1)C(=O)N[C@@H](CCCCN)C(=O)N[C@H](CCCNC(=N)N)C(=O)N[C@@H](CCCCN)C(=O)O`, in that order: 93% and 169%.
For `CC[C@H](C)[C@H](NC(=O)[C@H](Cc1ccccc1)NC(=O)[C@@H](NC(=O)[C@H](C)NC(=O)[C@H](CCSC)NC(=O)[C@H](CCC(N)=O)NC(=O)[C@@H](NC(=O)[C@H](C)NC(=O)[C@@H](N)[C@@H](C)O)C(C)C)C(C)C)C(=O)N[C@@H](Cc1cnc[nH]1)C(=O)N[C@@H](CC(N)=O)C(=O)N[C@@H](Cc1ccccc1)C(=O)N[C@H](CCCCN)C(=O)N[C@@H](CCCNC(=N)N)C(=O)N[C@@H](CCCCN)C(=O)O`, in that order: 110% and 120%.
The corresponding values for `CC[C@H](C)[C@H](NC(=O)[C@H](Cc1ccccc1)NC(=O)[C@@H](NC(=O)[C@H](C)NC(=O)[C@H](CCSC)NC(=O)[C@H](CCC(N)=O)NC(=O)[C@@H](NC(=O)[C@H](C)NC(=O)[C@@H](N)[C@@H](C)O)C(C)C)C(C)C)C(=O)N[C@@H](Cc1cnc[nH]1)C(=O)N[C@@H](CC(N)=O)C(=O)N[C@H](Cc1ccccc1)C(=O)N[C@@H](CCCCN)C(=O)N[C@@H](CCCNC(=N)N)C(=O)N[C@@H](CCCCN)C(=O)O` are 112% and 156%.
On to `CC[C@H](C)[C@H](NC(=O)[C@H](Cc1ccccc1)NC(=O)[C@@H](NC(=O)[C@H](C)NC(=O)[C@H](CCSC)NC(=O)[C@H](CCC(N)=O)NC(=O)[C@@H](NC(=O)[C@H](C)NC(=O)[C@@H](N)[C@@H](C)O)C(C)C)C(C)C)C(=O)N[C@@H](Cc1cnc[nH]1)C(=O)N[C@H](CC(N)=O)C(=O)N[C@@H](Cc1ccccc1)C(=O)N[C@@H](CCCCN)C(=O)N[C@@H](CCCNC(=N)N)C(=O)N[C@@H](CCCCN)C(=O)O`, for which the Activity was determined as 116% in experiment [1] and 92% in experiment [2].
For `CC[C@H](C)[C@H](NC(=O)[C@H](Cc1ccccc1)NC(=O)[C@@H](NC(=O)[C@H](C)NC(=O)[C@H](CCSC)NC(=O)[C@H](CCC(N)=O)NC(=O)[C@@H](NC(=O)[C@H](C)NC(=O)[C@@H](N)[C@@H](C)O)C(C)C)C(C)C)C(=O)N[C@H](Cc1cnc[nH]1)C(=O)N[C@@H](CC(N)=O)C(=O)N[C@@H](Cc1ccccc1)C(=O)N[C@@H](CCCCN)C(=O)N[C@@H](CCCNC(=N)N)C(=O)N[C@@H](CCCCN)C(=O)O`, in that order: 105% and 105%.
For `CC[C@H](C)[C@H](NC(=O)[C@H](Cc1ccccc1)NC(=O)[C@@H](NC(=O)[C@H](C)NC(=O)[C@H](CCSC)NC(=O)[C@H](CCC(N)=O)NC(=O)[C@@H](NC(=O)[C@H](C)NC(=O)[C@H](N)[C@@H](C)O)C(C)C)C(C)C)C(=O)N[C@@H](Cc1cnc[nH]1)C(=O)N[C@@H](CC(N)=O)C(=O)N[C@@H](Cc1ccccc1)C(=O)N[C@@H](CCCCN)C(=O)N[C@@H](CCCNC(=N)N)C(=O)N[C@@H](CCCCN)C(=O)O`, in that order: 73% and 141%.
For `CC[C@H](C)[C@H](NC(=O)[C@H](Cc1ccccc1)NC(=O)[C@@H](NC(=O)[C@H](C)NC(=O)[C@H](CCSC)NC(=O)[C@H](CCC(N)=O)NC(=O)[C@H](NC(=O)[C@H](C)NC(=O)[C@@H](N)[C@@H](C)O)C(C)C)C(C)C)C(=O)N[C@@H](Cc1cnc[nH]1)C(=O)N[C@@H](CC(N)=O)C(=O)N[C@@H](Cc1ccccc1)C(=O)N[C@@H](CCCCN)C(=O)N[C@@H](CCCNC(=N)N)C(=O)N[C@@H](CCCCN)C(=O)O`, in that order: 115% and 226%.
Regarding `CC[C@H](C)[C@H](NC(=O)[C@H](Cc1ccccc1)NC(=O)[C@H](NC(=O)[C@H](C)NC(=O)[C@H](CCSC)NC(=O)[C@H](CCC(N)=O)NC(=O)[C@@H](NC(=O)[C@H](C)NC(=O)[C@@H](N)[C@@H](C)O)C(C)C)C(C)C)C(=O)N[C@@H](Cc1cnc[nH]1)C(=O)N[C@@H](CC(N)=O)C(=O)N[C@@H](Cc1ccccc1)C(=O)N[C@@H](CCCCN)C(=O)N[C@@H](CCCNC(=N)N)C(=O)N[C@@H](CCCCN)C(=O)O`, the Activity in experiment [1] came to 108%; in experiment [2], 152%.
Turning to `CC[C@H](C)[C@H](NC(=O)[C@H](Cc1ccccc1)NC(=O)[C@@H](NC(=O)[C@H](C)NC(=O)[C@H](CCSC)NC(=O)[C@H](CCC(N)=O)NC(=O)[C@@H](NC(=O)[C@H](C)NC(=O)[C@H](C)N)C(C)C)C(C)C)C(=O)N[C@@H](Cc1cnc[nH]1)C(=O)N[C@@H](CC(N)=O)C(=O)N[C@@H](Cc1ccccc1)C(=O)N[C@@H](CCCCN)C(=O)N[C@@H](CCCNC(=N)N)C(=O)N[C@@H](CCCCN)C(=O)O` (H-AAVQMAVFIHNFKRK-OH), the values for the Activity in experiment [1] and in experiment [2] were 83% and 80%, respectively.
The corresponding values for `CC[C@H](C)[C@H](NC(=O)[C@H](Cc1ccccc1)NC(=O)[C@@H](NC(=O)[C@H](C)N)C(C)C)C(=O)N[C@@H](Cc1cnc[nH]1)C(=O)N[C@@H](CC(N)=O)C(=O)N[C@@H](Cc1ccccc1)C(=O)N[C@@H](CCCCN)C(=O)N[C@@H](CCCNC(=N)N)C(=O)N[C@@H](CCCCN)C(=O)O` (H-AVFIHNFKRK-OH) are 120% and 111%.
Take `CC[C@H](C)[C@H](NC(=O)[C@H](Cc1ccccc1)NC(=O)[C@@H](NC(=O)[C@H](C)NC(=O)[C@H](CCSC)NC(=O)[C@H](CCC(N)=O)NC(=O)[C@@H](NC(=O)[C@H](C)N)C(C)C)C(C)C)C(=O)N[C@@H](Cc1cnc[nH]1)C(=O)N[C@@H](CC(N)=O)C(=O)N[C@@H](Cc1ccccc1)C(=O)N[C@@H](CCCCN)C(=O)N[C@@H](CCCNC(=N)N)C(=O)N[C@@H](CCCCN)C(=O)O` (H-AVQMAVFIHNFKRK-OH): the Activity was 99% in experiment [1] and 141% in experiment [2].
In the case of `CC[C@H](C)[C@H](NC(=O)[C@@H](N)Cc1ccccc1)C(=O)N[C@@H](Cc1cnc[nH]1)C(=O)N[C@@H](CC(N)=O)C(=O)N[C@@H](Cc1ccccc1)C(=O)N[C@@H](CCCCN)C(=O)N[C@@H](CCCNC(=N)N)C(=O)N[C@@H](CCCCN)C(=O)O` (H-FIHNFKRK-OH), the Activity in experiment [1] worked out at 133%; in experiment [2] it was 69%.

The values above are taken from ChEMBL document CHEMBL3217454, “Structureactivity relationship studies using peptide arrays: the example of HIV-1 Revintegrase interaction” (Medchemcomm, 2013).
